Data as given in ChEMBL document CHEMBL5653615 (J Biol Chem, 2013).

How the values were obtained:
[1] = biological target: T1, Serine/threonine-protein kinase Nek3 (Homo sapiens) (UniProt P51956); test: Inhibition of human NEK3 at 18.6 nM by HotSpot assay relative to control
T1 sequence (whole entry): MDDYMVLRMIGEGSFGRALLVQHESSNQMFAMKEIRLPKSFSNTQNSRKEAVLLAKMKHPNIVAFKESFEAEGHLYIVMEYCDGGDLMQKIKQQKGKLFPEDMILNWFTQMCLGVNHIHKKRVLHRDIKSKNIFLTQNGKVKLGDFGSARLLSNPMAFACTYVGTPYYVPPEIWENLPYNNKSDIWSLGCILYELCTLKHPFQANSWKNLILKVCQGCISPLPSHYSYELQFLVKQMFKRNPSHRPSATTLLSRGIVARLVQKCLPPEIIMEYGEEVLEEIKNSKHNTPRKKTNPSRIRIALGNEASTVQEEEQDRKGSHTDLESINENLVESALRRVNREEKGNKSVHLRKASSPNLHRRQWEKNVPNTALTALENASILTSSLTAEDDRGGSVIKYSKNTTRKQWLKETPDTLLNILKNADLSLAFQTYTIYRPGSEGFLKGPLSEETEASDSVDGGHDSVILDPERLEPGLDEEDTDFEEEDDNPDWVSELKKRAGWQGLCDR

[2] = biological target: LIM domain kinase 1 (Homo sapiens) (UniProt P53667); test: Inhibition of human LIMK1 at 18.6 nM by HotSpot assay relative to control
[3] = biological target: Serine/threonine-protein kinase 16 (Homo sapiens) (UniProt O75716); test: Inhibition of human STK16 at 18.6 nM by HotSpot assay relative to control
[4] = biological target: T2, Serine/threonine-protein kinase BRSK1 (Homo sapiens) (UniProt Q8TDC3); test: Inhibition of human BRSK1 at 18.6 nM by HotSpot assay relative to control
T2 sequence (whole entry): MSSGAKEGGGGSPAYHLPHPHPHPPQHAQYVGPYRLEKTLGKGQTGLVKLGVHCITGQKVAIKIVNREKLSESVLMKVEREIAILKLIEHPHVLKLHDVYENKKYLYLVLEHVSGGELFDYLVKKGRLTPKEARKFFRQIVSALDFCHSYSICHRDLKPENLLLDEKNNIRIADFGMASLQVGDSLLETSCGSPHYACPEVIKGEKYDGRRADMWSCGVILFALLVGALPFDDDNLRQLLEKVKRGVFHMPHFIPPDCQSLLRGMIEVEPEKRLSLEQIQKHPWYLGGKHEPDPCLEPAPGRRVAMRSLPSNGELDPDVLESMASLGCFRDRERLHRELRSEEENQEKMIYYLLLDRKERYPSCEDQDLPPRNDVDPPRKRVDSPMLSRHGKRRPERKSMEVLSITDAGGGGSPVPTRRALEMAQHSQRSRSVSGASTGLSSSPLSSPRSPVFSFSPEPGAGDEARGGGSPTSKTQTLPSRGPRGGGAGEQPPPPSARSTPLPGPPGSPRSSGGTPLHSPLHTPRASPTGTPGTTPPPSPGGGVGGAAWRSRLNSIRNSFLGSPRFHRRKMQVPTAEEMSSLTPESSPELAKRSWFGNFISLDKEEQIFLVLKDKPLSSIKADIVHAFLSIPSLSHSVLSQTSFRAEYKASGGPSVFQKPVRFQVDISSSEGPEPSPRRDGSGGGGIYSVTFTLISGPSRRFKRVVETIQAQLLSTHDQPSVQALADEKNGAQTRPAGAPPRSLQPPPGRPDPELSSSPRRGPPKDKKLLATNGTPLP

[5] = biological target: T3, cAMP-dependent protein kinase catalytic subunit PRKX (Homo sapiens) (UniProt P51817); test: Inhibition of human PRKX at 18.6 nM by HotSpot assay relative to control
T3 sequence (whole entry): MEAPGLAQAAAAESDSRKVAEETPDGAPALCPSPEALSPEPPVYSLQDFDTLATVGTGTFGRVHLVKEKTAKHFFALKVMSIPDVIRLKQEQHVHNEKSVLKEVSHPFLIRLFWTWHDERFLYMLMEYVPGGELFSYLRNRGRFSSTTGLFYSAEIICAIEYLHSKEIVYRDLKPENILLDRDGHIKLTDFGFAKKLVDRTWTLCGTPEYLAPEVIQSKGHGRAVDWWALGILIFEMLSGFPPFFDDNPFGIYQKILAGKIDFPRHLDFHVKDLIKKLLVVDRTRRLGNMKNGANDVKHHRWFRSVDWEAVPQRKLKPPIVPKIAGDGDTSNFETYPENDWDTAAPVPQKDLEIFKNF

[6] = biological target: Calcium/calmodulin-dependent protein kinase type 1D (Homo sapiens) (UniProt Q8IU85); test: Inhibition of human CAMK1d at 18.6 nM by HotSpot assay relative to control
[7] = biological target: T4, Dual specificity mitogen-activated protein kinase kinase 6 (Homo sapiens) (UniProt P52564); test: Inhibition of human MKK6 at 18.6 nM by HotSpot assay relative to control
T4 sequence (whole entry): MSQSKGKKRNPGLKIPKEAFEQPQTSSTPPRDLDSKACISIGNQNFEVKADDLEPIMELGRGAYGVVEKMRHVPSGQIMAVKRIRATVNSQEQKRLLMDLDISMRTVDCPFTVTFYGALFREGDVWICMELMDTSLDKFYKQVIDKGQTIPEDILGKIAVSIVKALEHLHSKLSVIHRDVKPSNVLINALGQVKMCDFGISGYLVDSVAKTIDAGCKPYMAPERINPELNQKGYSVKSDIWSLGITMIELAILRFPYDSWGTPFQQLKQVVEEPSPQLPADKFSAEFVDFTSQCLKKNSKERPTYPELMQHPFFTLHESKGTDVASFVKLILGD

[8] = biological target: STE20/SPS1-related proline-alanine-rich protein kinase (Homo sapiens) (UniProt Q9UEW8); test: Inhibition of human STLK3 at 1.82 nM by HotSpot assay relative to control
[9] = biological target: CDK6/cyclin D1 (Homo sapiens) (UniProt P24385+Q00534); test: Inhibition of human CDK6/cyclin D1 at 1.82 nM by HotSpot assay relative to control; format: protein-complex assay

Serine/threonine-protein kinase 16 (Homo sapiens), sequence (O75716 whole entry): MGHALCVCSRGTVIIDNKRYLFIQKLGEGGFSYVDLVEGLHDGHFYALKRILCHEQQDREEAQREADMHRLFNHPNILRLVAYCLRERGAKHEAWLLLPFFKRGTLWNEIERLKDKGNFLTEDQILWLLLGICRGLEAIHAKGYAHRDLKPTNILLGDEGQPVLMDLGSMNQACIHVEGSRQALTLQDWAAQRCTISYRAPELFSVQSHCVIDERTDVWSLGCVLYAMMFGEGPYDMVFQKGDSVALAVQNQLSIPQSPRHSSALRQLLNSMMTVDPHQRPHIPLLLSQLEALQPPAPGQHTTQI
LIM domain kinase 1 (Homo sapiens), sequence (P53667 whole entry, looked up, the tested form may be a part): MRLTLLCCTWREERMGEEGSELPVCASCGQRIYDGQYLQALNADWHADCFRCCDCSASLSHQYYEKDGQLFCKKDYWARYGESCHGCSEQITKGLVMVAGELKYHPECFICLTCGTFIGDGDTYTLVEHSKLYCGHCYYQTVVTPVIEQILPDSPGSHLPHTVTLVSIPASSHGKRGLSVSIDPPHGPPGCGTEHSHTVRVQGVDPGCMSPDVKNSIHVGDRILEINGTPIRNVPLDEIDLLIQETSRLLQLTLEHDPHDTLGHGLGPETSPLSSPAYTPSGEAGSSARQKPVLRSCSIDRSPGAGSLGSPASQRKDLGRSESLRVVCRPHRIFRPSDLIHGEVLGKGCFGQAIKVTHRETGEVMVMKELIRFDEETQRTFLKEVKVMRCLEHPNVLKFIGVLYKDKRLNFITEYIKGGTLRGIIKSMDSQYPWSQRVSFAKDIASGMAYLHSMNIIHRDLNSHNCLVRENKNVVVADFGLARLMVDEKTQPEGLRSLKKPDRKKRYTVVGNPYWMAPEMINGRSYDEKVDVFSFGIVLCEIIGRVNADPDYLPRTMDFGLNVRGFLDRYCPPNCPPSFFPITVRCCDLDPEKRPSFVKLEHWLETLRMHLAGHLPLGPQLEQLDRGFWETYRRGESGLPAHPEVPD
Calcium/calmodulin-dependent protein kinase type 1D (Homo sapiens), sequence (Q8IU85 whole entry, looked up): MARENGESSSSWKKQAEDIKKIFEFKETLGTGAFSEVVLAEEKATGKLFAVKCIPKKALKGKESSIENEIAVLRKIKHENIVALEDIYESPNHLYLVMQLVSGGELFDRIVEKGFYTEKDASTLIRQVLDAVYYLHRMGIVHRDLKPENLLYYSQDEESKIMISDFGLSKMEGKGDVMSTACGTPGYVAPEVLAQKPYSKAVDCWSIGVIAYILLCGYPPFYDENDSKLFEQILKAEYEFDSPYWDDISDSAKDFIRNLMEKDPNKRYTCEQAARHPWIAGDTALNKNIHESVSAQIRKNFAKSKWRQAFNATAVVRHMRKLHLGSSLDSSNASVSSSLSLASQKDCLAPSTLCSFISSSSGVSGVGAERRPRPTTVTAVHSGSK

SMILES | inhibition [1] | inhibition [2] | inhibition [3] | inhibition [4] | inhibition [5] | inhibition [6] | inhibition [7] | inhibition [8] | inhibition [9]
C[C@]1(O)C[C@@H](c2nc(-c3ccc4ccc(-c5ccccc5)nc4c3)c3c(N)nccn32)C1 | 7.82% | -8.11% | -0.38% | -2.86% | -0.35% | -0.1% | 1.97% |  | 
C[C@@]1(C(=O)Nc2ccc(F)nc2)CCCN1c1nc(Nc2cc(C3CC3)n[nH]2)c2cccn2n1 |  |  |  |  |  |  |  | -5.74% | -1.74%
